This is an account of results in patent US20110124032A1, “Methods and Compositions for Treating Carcinoma Stem Cells” (priority 2008, published 2011).

Experiment [1] deals with Thy1+CD24+Lin− CSC-enriched cells from MMTV-Wnt-1 breast tumors. Kind of experiment: In vitro colony assay (clonogenic survival), CSC-enriched cells. The class given is cell-based, mouse. From the text:
Given the overexpression of genes involved in GSH synthesis by CSCs, we wished to assess the sensitivity of these cells to ROS elevation via pharmacologic depletion of GSH. Exposure of Thy1^+CD24^+Lin″ CSC-enriched cells to Buthionine Sulfoximine (BSO), which inhibits glutamate-cysteine ligase, decreased their colony forming ability by approximately three fold (FIG. 4d). Finally, we asked if GSH depletion would radiosensitize CSCs. […] The mechanism leading to low ROS levels in some CSCs appears to be at least partially due to the increased production of free radical scavengers. […] The low ROS subset found in the various stem cell populations may also represent a quiescent subpopulation. […]
Cells were analyzed, collected by FACS, and injected into recipient mice as described with minor modifications from mouse mammary glands, human breast cancers, human head and neck cancers, and MMTV-Wnt-1 mouse tumors. […] For intracellular ROS analysis, cells were loaded with 10 μM DCF-DA (Invitrogen), incubated at 37° C. for 30 min, and immediately analyzed by flow cytometry. […] DNA damage was evaluated using the single-cell gel electrophoresis assay under alkaline conditions. […] After reverse transcription, genes were pre-amplified (22 cycles) using the same Taqman primers (Applied Biosystems) used for quantification. Products were analyzed using qPCR DynamicArray microfluidic chips (Fluidigm). […]

For experiment [2], the system named is “Not Thy1+CD24+” Lin− non-tumorigenic cells (NTCs) from MMTV-Wnt-1 breast tumors. The experiment is described as follows: In vitro colony assay (clonogenic survival after ionizing radiation), non-tumorigenic cells. The class given is cell-based, mouse. The following applies: 10 mM tempol for 15 minutes prior to irradiation, drug then removed; FIG. 4c. An excerpt: In order to pharmacologically manipulate ROS levels separately in CSCs and NTCs, we employed in vitro culture conditions that allowed both cell populations to produce colonies upon co-culture with irradiated feeder cells. […] When exposed to 2 Gy, a dose commonly administered clinically during daily treatments of breast cancer patients, 2.0-fold+/−0.2 more CSC-enriched colonies survived than NTC colonies. Next, we attempted to radioprotect NTCs by exposing them to the nitroxide antioxidant tempol.
Cells were analyzed, collected by FACS, and injected into recipient mice as described with minor modifications from mouse mammary glands, human breast cancers, human head and neck cancers, and MMTV-Wnt-1 mouse tumors. […] For intracellular ROS analysis, cells were loaded with 10 μM DCF-DA (Invitrogen), incubated at 37° C. for 30 min, and immediately analyzed by flow cytometry. […] DNA damage was evaluated using the single-cell gel electrophoresis assay under alkaline conditions. […] After reverse transcription, genes were pre-amplified (22 cycles) using the same Taqman primers (Applied Biosystems) used for quantification. Products were analyzed using qPCR DynamicArray microfluidic chips (Fluidigm). […] After 24-48 hrs, the media was replaced with serum-free Epicult B, and colonies counted ˜7 days later. […] Levels of significance were determined by Student's t-tests using (=0.05. […]

For the molecule `CCCCS(=N)(=O)CC[C@H](N)C(=O)O` (stereo partly drawn) [BSO, L-S,R-Buthionine Sulfoximine], the “Clonogenic survival after ionizing radiation (radiosensitization)” value in experiment [1] (1 mM BSO 24 hour pretreatment, removed prior to irradiation, 3 Gy, FIG. 4e) was “significant radiosensitization”. In experiment [1] (24 hour pre-treatment with 1 mM BSO, no irradiation, FIG. 4d), the “Decrease in colony forming ability” value was “approximately three”. As to `CC1(C)CC(O)CC(C)(C)N1[O]` [tempol], the “Clonogenic survival of NTCs after irradiation (radioprotection)” value in experiment [2] was “radioprotected NTCs, and resulted in survival levels similar to those seen in the CSC-enriched population”.
